Structures can show the parent of a compound that is named as a salt. Where two headings read alike, the source gives them in different places. One block for each compound: values may come before it.
Columns and labels:
[1] = system: H 460 (lung carcinoma); assay: Antiproliferative activity in vitro (MTT assay); assay type: cell-based, human; details: 72 h incubation, concentration that causes 50% growth inhibition
Method: (§1) The experiments were performed on four human cell lines, including HCT 116 (colon carcinoma), H 460 (lung carcinoma), MCF-7 (breast carcinoma), and HEK 293 (human embryonic kidney cells), in line with previously published experimental procedures. Briefly, the cells were grown in DMEM medium with the addition of 10% fetal bovine serum (FBS), 2 mM L-glutamine, 100 U/mL penicillin, and 100 µg/mL streptomycin, and cultured as monolayers at 37 °C in a humidified atmosphere with 5% CO2. Cells were seeded at 2 × 10^3 cells/well in a standard 96-well microtiter plates and left to attach for 24 h. The next day, a test compound was added in five serial 10-fold dilutions. The rate of cell growth was evaluated after 72 h of incubation with MTT assays. The obtained results are expressed as IC50 values, calculated from the concentration-response curve using linear regression analysis by fitting the test concentrations that give PG values above and below the reference value (i.e., 50%). Each test was performed in quadruplicate in at least two individual experiments.

[2] = system: MCF-7 (breast carcinoma); assay: Antiproliferative activity in vitro (MTT assay); assay type: cell-based, human; details: 72 h incubation, concentration that causes 50% growth inhibition
Method: as §1

[3] = system: HCT 116 (colon carcinoma); assay: Antiproliferative activity in vitro (MTT assay); assay type: cell-based, human; details: 72 h incubation, concentration that causes 50% growth inhibition, read-out: IC50 HCT116
Method: as §1

[4] = system: HEK 293 (human embryonic kidney cells); assay: Cytotoxic activity on non-cancerous cells (MTT assay); assay type: cell-based; details: non-tumor cell line, 72 h incubation, MTT, concentration that causes 50% growth inhibition
Method: as §1

[5] = DPPH free radical scavenging; assay type: biochemical; set-up: key to DPPH IC50: –: Very low activity; details: after 30 min of incubation with 100 μM DPPH
Method: The reducing activity of investigated systems was achieved by the DPPH method according to previously described procedures with modifications to assure the use in a 96-well microplate. Briefly, equal volumes of various concentrations of tested molecules (dissolved in DMSO) were added to the solution of DPPH (final concentration 50 µM in absolute ethanol). Ethanol and DMSO were used as control solutions in line with earlier reports.

[6] = Ferric reducing/antioxidant power (FRAP assay); assay type: biochemical; set-up: key to FRAP: –: Very low activity; details: means ± standard deviation; absorbance at 593 nm
Method: The FRAP method was carried out according to previously described procedures with some modifications to be compatible with an assay on a 96-well microplate. All tests were done in triplicate, while the obtained results were averaged and reported as Fe^2+ equivalents (Fe^2+ µmol).
By using the FRAP assay, we investigated the reducing power of investigated systems, which was monitored by the corresponding changes in the absorbance at 593 nm. This method is based on the ability of systems to reduce the ferric tripyridyl triazine complex (TPTZ) to the ferrous state (Fe^2+), which can be seen by an intense blue color. […] Good reducing ability was shown by the trimethoxy substituted benzimidazole-2-carboxamide 14 bearing the amino group (1102.5 ± 14.1 mmolFe^2+/mmolC).

SMILES: COc1ccc(C(=O)Nc2nc3ccc([N+](=O)[O-])cc3s2)c(O)c1 [Compound 28, 2-hydroxy-4-methoxy-N-(6-nitrobenzothiazol-2-yl)benzamide]
- IC50 ([1]; Homo sapiens, NCI-H460, 72 h): 8 ± 1 µM
- IC50 ([2]; Homo sapiens, MCF7, 72 h): 10 ± 8 µM
- IC50 ([3]; Homo sapiens, HCT-116, 72 h): 7 ± 0.4 µM
- IC50 ([4]; Homo sapiens, HEK293): 4 ± 2 µM
- DPPH IC50 [5]: –
- FRAP [6]: 39.8 ± 1.6 mmolFe^2+/mmolC

SMILES: COc1ccccc1C(=O)Nc1nc2ccc([N+](=O)[O-])cc2[nH]1 [Compound 6, 2-methoxy-N-[5(6)-nitrobenzimidazol-2-yl]benzamide]
- IC50 ([1]; Homo sapiens, NCI-H460, 72 h): 6 ± 5 µM
- IC50 ([2]; Homo sapiens, MCF7, 72 h): 4 ± 0.3 µM
- IC50 ([3]; Homo sapiens, HCT-116, 72 h): 6 ± 1 µM
- IC50 ([4]; Homo sapiens, HEK293): 3 ± 0.6 µM
- DPPH IC50 [5]: – ^c
- FRAP [6]: 123.5 ± 2.8 mmolFe^2+/mmolC

SMILES: O=C(Nc1nc2ccc([N+](=O)[O-])cc2s1)c1ccccc1O [Compound 27, 2-hydroxy-N-(6-nitrobenzothiazol-2-yl)benzamide]
- IC50 ([1]; Homo sapiens, NCI-H460, 72 h): 3 ± 0.2 µM
- IC50 ([2]; Homo sapiens, MCF7, 72 h): 2 ± 0.6 µM
- IC50 ([3]; Homo sapiens, HCT-116, 72 h): 6 ± 1 µM
- IC50 ([4]; Homo sapiens, HEK293): 3 ± 1 µM
- DPPH IC50 [5]: –
- FRAP [6]: –

SMILES: COc1cc([C@@H]2c3cc4c(cc3[C@@H](O[C@@H]3O[C@@H]5CO[C@@H](C)O[C@H]5[C@H](O)[C@H]3O)[C@H]3COC(=O)[C@H]23)OCO4)cc(OC)c1O [Etoposide, reference compound]
- IC50 ([1]; Homo sapiens, NCI-H460, 72 h): 0.1 ± 0.04 µM
- IC50 ([2]; Homo sapiens, MCF7, 72 h): 1 ± 0.7 µM
- IC50 ([3]; Homo sapiens, HCT-116, 72 h): 5 ± 2 µM
- IC50 ([4]; Homo sapiens, HEK293): 1.6 ± 0.4 µM

SMILES: COc1ccccc1C(=O)Nc1nc2ccc([N+](=O)[O-])cc2s1 [Compound 9, 2-methoxy-N-(6-nitrobenzothiazol-2-yl)benzamide]
- IC50 ([1]; Homo sapiens, NCI-H460, 72 h): 46 ± 3 µM
- IC50 ([2]; Homo sapiens, MCF7, 72 h): 9 ± 1 µM
- IC50 ([3]; Homo sapiens, HCT-116, 72 h): 44 ± 25 µM
- DPPH IC50 [5]: –
- FRAP [6]: 6.7 ± 0.6 mmolFe^2+/mmolC

SMILES: COc1ccccc1C(=O)Nc1nc2ccc(N)cc2s1 [Compound 15, N-(6-aminobenzothiazol-2-yl)-2-methoxybenzamide]
- IC50 ([1]; Homo sapiens, NCI-H460, 72 h): 3 ± 0.9 µM
- IC50 ([2]; Homo sapiens, MCF7, 72 h): 3 ± 2 µM
- IC50 ([3]; Homo sapiens, HCT-116, 72 h): 6 ± 4 µM
- DPPH IC50 [5]: –
- FRAP [6]: 163.4 ± 4.7 mmolFe^2+/mmolC

SMILES: COc1cc(C(=O)Nc2nc3ccc([N+](=O)[O-])cc3s2)cc(OC)c1OC [Compound 11, 3,4,5-trimethoxy-N-(6-nitrobenzothiazol-2-yl)benzamide]
- IC50 ([1]; Homo sapiens, NCI-H460, 72 h): 23 ± 4 µM
- IC50 ([2]; Homo sapiens, MCF7, 72 h): 17 ± 9 µM
- IC50 ([3]; Homo sapiens, HCT-116, 72 h): 37 ± 0.8 µM
- DPPH IC50 [5]: –
- FRAP [6]: 155.5 ± 3.0 mmolFe^2+/mmolC

SMILES: COc1ccc(C(=O)Nc2nc3ccc([N+](=O)[O-])cc3s2)c(OC)c1 [Compound 10, 2,4-dimethoxy-N-(6-nitrobenzothiazol-2-yl)benzamide]
- IC50 ([1]; Homo sapiens, NCI-H460, 72 h): 20 ± 3 µM
- IC50 ([2]; Homo sapiens, MCF7, 72 h): 5 ± 2 µM
- IC50 ([3]; Homo sapiens, HCT-116, 72 h): 9 ± 7 µM
- IC50 ([4]; Homo sapiens, HEK293): 5 ± 1 µM
- DPPH IC50 [5]: –
- FRAP [6]: –

SMILES: O=C(Nc1nc2ccc([N+](=O)[O-])cc2[nH]1)c1ccccc1O [Compound 24, 2-hydroxy-N-[5(6)-nitrobenzimidazol-2-yl]benzamide]
- IC50 ([1]; Homo sapiens, NCI-H460, 72 h): 42 ± 20 µM
- IC50 ([2]; Homo sapiens, MCF7, 72 h): 42 ± 7 µM
- IC50 ([3]; Homo sapiens, HCT-116, 72 h): 61 ± 0.1 µM
- DPPH IC50 [5]: –
- FRAP [6]: 39.1 ± 2.0 mmolFe^2+/mmolC

SMILES: COc1cc(C(=O)Nc2nc3ccc(N)cc3s2)cc(OC)c1OC.Cl [Compound 23, N-(6-aminobenzothiazol-2-yl)-3,4,5-trimethoxybenzamide hydrochloride]
- IC50 [1]: 34 ± 9 µM
- IC50 [3]: 50 ± 11 µM
- IC50 [5]: 1.5 ± 0.5 µM
- FRAP [6]: 241.3 ± 1.6 mmolFe^2+/mmolC

SMILES: Nc1ccc2nc(NC(=O)c3ccccc3O)[nH]c2c1 [Compound 30, N-[5(6)-aminobenzimidazol-2-yl]-2-hydroxybenzamide]
- IC50 ([1]; Homo sapiens, NCI-H460, 72 h): > 100 µM
- IC50 ([2]; Homo sapiens, MCF7, 72 h): 30 ± 0.8 µM
- IC50 ([3]; Homo sapiens, HCT-116, 72 h): 46 ± 0.2 µM
- IC50 [5]: 42.5 ± 0.5 µM
- FRAP [6]: 272.6 ± 7.1 mmolFe^2+/mmolC

SMILES: COc1cc(C(=O)Nc2nc3ccc(N)cc3s2)cc(OC)c1OC [Compound 17, N-(6-aminobenzothiazol-2-yl)-3,4,5-trimethoxybenzamide]
- IC50 [1]: ≥ 100 µM
- IC50 [2]: 5 ± 3 µM
- IC50 ([3]; Homo sapiens, HCT-116, 72 h): 28 ± 4 µM
- IC50 [5]: 40.4 ± 0.4 µM
- FRAP [6]: 235.4 ± 2.8 mmolFe^2+/mmolC

SMILES: COc1cc(C(=O)Nc2nc3cc(N)ccc3[nH]2)cc(OC)c1OC.Cl [Compound 20, N-(6-aminobenzimidazol-2-yl)-3,4,5-trimethoxybenzamide hydrochloride]
- IC50 ([1]; Homo sapiens, NCI-H460, 72 h): > 100 µM
- IC50 ([2]; Homo sapiens, MCF7, 72 h): 34 ± 30 µM
- IC50 ([3]; Homo sapiens, HCT-116, 72 h): ≥ 100 µM
- IC50 [5]: 8.06 ± 0.03 µM
- FRAP [6]: 267.4 ± 1.4 mmolFe^2+/mmolC

Continued, in another order:

- IC50 [1]: 36 ± 8 µM
- IC50 [2]: 23 ± 2 µM
- IC50 [3]: 33 ± 7 µM
- IC50 [5]: 9.85 ± 0.003 µM
SMILES: COc1ccccc1C(=O)Nc1nc2ccc(N)cc2[nH]1 [Compound 18, N-[5(6)-aminobenzimidazol-2-yl]-2-methoxybenzamide hydrochloride]
- FRAP [6]: 267.2 ± 5.0 mmolFe^2+/mmolC

- IC50 ([1]; Homo sapiens, NCI-H460, 72 h): 39 ± 11 µM
- IC50 [2]: 53 ± 9 µM
- IC50 ([3]; Homo sapiens, HCT-116, 72 h): 48 ± 4 µM
- IC50 [5]: 28.9 ± 1.03 µM
SMILES: COc1ccccc1C(=O)Nc1nc2ccc(N)cc2[nH]1 [Compound 12, N-[5(6)-aminobenzimidazol-2-yl]-2-methoxybenzamide]
- FRAP [6]: 256.3 ± 2.8 mmolFe^2+/mmolC

- IC50 [1]: 50 ± 8 µM
- IC50 [2]: 3 ± 0.2 µM
- IC50 [3]: 8 ± 2 µM
- IC50 [5]: 4 ± 0.04 µM
SMILES: COc1ccc(C(=O)Nc2nc3ccc(N)cc3s2)c(OC)c1.Cl [Compound 22, N-(6-aminobenzothiazol-2-yl)-2,4-dimethoxybenzamide hydrochloride]
- IC50 [4]: 11 ± 1 µM
- FRAP [6]: 244.2 ± 3.0 mmolFe^2+/mmolC

- IC50 ([1]; Homo sapiens, NCI-H460, 72 h): 43 ± 29 µM
- IC50 ([2]; Homo sapiens, MCF7, 72 h): 5 ± 0.3 µM
- IC50 ([3]; Homo sapiens, HCT-116, 72 h): 6 ± 1 µM
- DPPH IC50 [5]: –
SMILES: COc1ccc(C(=O)Nc2nc3ccc(N)cc3s2)c(OC)c1 [Compound 16, N-(6-aminobenzothiazol-2-yl)-2,4-dimethoxybenzamide]
- IC50 ([4]; Homo sapiens, HEK293): 11 ± 8 µM
- FRAP [6]: 203.6 ± 5.8 mmolFe^2+/mmolC

- IC50 [1]: ≥ 100 µM
- IC50 [2]: 80 ± 4 µM
- IC50 [3]: 50 ± 13 µM
- IC50 [5]: 29.5 ± 0.1 µM
SMILES: COc1ccc(C(=O)Nc2nc3ccc(N)cc3[nH]2)c(O)c1 [Compound 32, N-[5(6)-aminobenzimidazol-2-yl]-2-hydroxy-4-methoxybenzamide]
- FRAP [6]: 304.3 ± 6.4 mmolFe^2+/mmolC

- IC50 [1]: > 100 µM
- IC50 [2]: 34 ± 24 µM
- IC50 [3]: ≥ 100 µM
- IC50 [5]: 13.3 ± 0.8 µM
SMILES: COc1ccc(C(=O)Nc2nc3ccc(N)cc3[nH]2)c(OC)c1 [Compound 19, N-[5(6)-aminobenzimidazol-2-yl]-2,4-dimethoxybenzamide hydrochloride]
- FRAP [6]: 259.1 ± 0.6 mmolFe^2+/mmolC

- IC50 ([1]; Homo sapiens, NCI-H460, 72 h): 18 ± 0.01 µM
- IC50 ([2]; Homo sapiens, MCF7, 72 h): 28 ± 6 µM
- IC50 ([3]; Homo sapiens, HCT-116, 72 h): 31 ± 4 µM
- DPPH IC50 [5]: –
SMILES: COc1ccc(C(=O)Nc2nc3ccc([N+](=O)[O-])cc3[nH]2)c(O)c1 [Compound 25, 2-hydroxy-4-methoxy-N-[5(6)-nitrobenzimidazol-2-yl]benzamide]
- FRAP [6]: 150.4 ± 3.4 mmolFe^2+/mmolC

- IC50 ([1]; Homo sapiens, NCI-H460, 72 h): 75 ± 27 µM
- IC50 ([2]; Homo sapiens, MCF7, 72 h): ≥ 100 µM
- IC50 ([3]; Homo sapiens, HCT-116, 72 h): 37 ± 7 µM
- IC50 [5]: 9.2 ± 0.6 µM
SMILES: COc1ccc(C(=O)Nc2nc3ccc(N)cc3[nH]2)c(O)c1 [Compound 31, N-[5(6)-aminobenzimidazol-2-yl]-2-hydroxy-4-methoxybenzamide]
- FRAP [6]: 258.4 ± 6.4 mmolFe^2+/mmolC

- IC50 [1]: 24 ± 8 µM
- IC50 ([2]; Homo sapiens, MCF7, 72 h): 20 ± 4 µM
- IC50 [3]: 17 ± 8 µM
- IC50 [5]: 17.7 ± 2.81 µM
SMILES: COc1ccc(C(=O)Nc2nc3ccc(N)cc3[nH]2)c(OC)c1 [Compound 13, N-[5(6)-aminobenzimidazol-2-yl]-2,4-dimethoxybenzamide]
- FRAP [6]: 238.4 ± 2.1 mmolFe^2+/mmolC
